Details: Liquid; for viscosity: Vibrating wire viscometry; for mass density: Vibrating tube method

FC(F)(F)/C=C\C(F)(F)F [(Z)-1,1,1,4,4,4-hexafluorobut-2-ene]
Details	mass density [kg/m3]	viscosity [mPa·s]
313.16 K, 10000 kPa	–	0.3543
313.16 K, 50000 kPa	1451.06	–
313.16 K, 60000 kPa	1467.37	–
323.14 K, 5000 kPa	1317.21	–
323.14 K, 10000 kPa	1335.83	–
323.14 K, 20000 kPa	–	0.3632
323.15 K, 500 kPa	1297.83	–
323.15 K, 1000 kPa	1300.12	–
323.15 K, 5000 kPa	–	0.2981
323.15 K, 10000 kPa	–	0.322
323.15 K, 15000 kPa	1352.25	0.3425
323.15 K, 20000 kPa	1366.96	–
323.15 K, 25000 kPa	1380.35	0.3839
323.15 K, 30000 kPa	1392.69	0.4043
323.15 K, 40000 kPa	1414.6	–
323.15 K, 50000 kPa	1433.91	–
323.15 K, 80010 kPa	1480.77	–
323.15 K, 100010 kPa	1505.41	–
323.16 K, 500 kPa	–	0.2776
323.16 K, 1000 kPa	–	0.28
323.16 K, 2000 kPa	1304.59	0.2844
323.16 K, 40000 kPa	–	0.445
323.16 K, 60000 kPa	1451.12	–
333.14 K, 500 kPa	–	0.2497
333.15 K, 1000 kPa	1271.96	0.2521
333.15 K, 5000 kPa	1291.31	0.2705
333.15 K, 10000 kPa	–	0.2917
333.15 K, 15000 kPa	–	0.3126
333.15 K, 20000 kPa	1346	0.3321
333.15 K, 25000 kPa	1360.41	0.3512
333.15 K, 30000 kPa	1373.57	0.3741
333.15 K, 40000 kPa	1396.93	0.41
333.15 K, 50000 kPa	1417.34	–
333.15 K, 60000 kPa	1435.25	–
333.15 K, 80000 kPa	1466.47	–
333.15 K, 100000 kPa	1492.09	–
333.16 K, 500 kPa	1269.32	–
333.16 K, 2000 kPa	1277.07	0.2568
333.16 K, 10000 kPa	1312.03	–
333.16 K, 15000 kPa	1330.02	–
343.15 K, 1000 kPa	–	0.2262
343.15 K, 2000 kPa	1248.57	0.2308
343.15 K, 5000 kPa	–	0.2443
343.15 K, 10000 kPa	–	0.2663
343.15 K, 15000 kPa	1307.63	0.2864
343.15 K, 20000 kPa	–	0.3054
343.15 K, 25000 kPa	–	0.3246
343.15 K, 30000 kPa	–	0.3429
343.15 K, 40000 kPa	1379.44	0.3794
343.15 K, 50000 kPa	1400.93	–
343.15 K, 60000 kPa	1419.91	–
343.15 K, 80000 kPa	1452.33	–
343.15 K, 100000 kPa	1478.79	–
343.16 K, 500 kPa	1239.61	0.224
343.16 K, 1000 kPa	1242.66	–
343.16 K, 5000 kPa	1264.73	–
343.16 K, 10000 kPa	1287.86	–
343.16 K, 20000 kPa	1324.98	–
343.16 K, 25000 kPa	1340.52	–
343.16 K, 30000 kPa	1354.59	–
353.14 K, 2000 kPa	–	0.2104
353.15 K, 1000 kPa	1211.33	–
353.15 K, 2000 kPa	1218.18	–
353.15 K, 5000 kPa	–	0.221
353.15 K, 10000 kPa	–	0.2419
353.15 K, 15000 kPa	1284.42	0.2623
353.15 K, 20000 kPa	–	0.2801
353.15 K, 25000 kPa	1320.02	–
353.15 K, 30000 kPa	1335.13	0.3157
353.15 K, 40000 kPa	1361.5	0.3504
353.15 K, 50000 kPa	1384.21	–
353.15 K, 60000 kPa	1404.05	–
353.15 K, 80010 kPa	1438.01	–
353.15 K, 100000 kPa	1465.73	–
353.16 K, 1000 kPa	–	0.2057
353.16 K, 5000 kPa	1236.75	–
353.16 K, 10000 kPa	1262.64	–
353.16 K, 20000 kPa	1303.28	–
353.16 K, 25000 kPa	–	0.2983
363.15 K, 1000 kPa	1177.46	–
363.15 K, 10000 kPa	1236.32	–
363.15 K, 25000 kPa	1298.98	–
363.15 K, 30000 kPa	1315.14	–
363.15 K, 60000 kPa	1387.96	–
363.15 K, 79990 kPa	1423.19	–
363.16 K, 2000 kPa	1185.52	–
363.16 K, 5000 kPa	1207.05	–
363.16 K, 15000 kPa	1260.38	–
363.16 K, 20000 kPa	1280.92	–
363.16 K, 40000 kPa	1343.17	–
363.16 K, 50000 kPa	1367.09	–
363.16 K, 100000 kPa	1451.81	–
373.15 K, 1000 kPa	1140.74	–
373.15 K, 5000 kPa	1175.78	–
373.15 K, 10020 kPa	1209.06	–
373.15 K, 15000 kPa	1235.47	–
373.15 K, 25000 kPa	1277.24	–
373.15 K, 30000 kPa	1294.44	–
373.15 K, 50000 kPa	1349.23	–
373.15 K, 60000 kPa	1370.99	–
373.15 K, 80010 kPa	1407.73	–
373.15 K, 100010 kPa	1437.36	–
373.16 K, 2000 kPa	1150.47	–
373.16 K, 20020 kPa	1257.86	–
373.16 K, 40000 kPa	1324.14	–

Reference: the NIST ThermoML archive (doi:10.1021/acs.jced.8b00713)
